The values below come from patent publication US20250073302A1, “CYCLIC PEPTIDES AS PROTEASOME STIMULATORS” (Purdue Research Foundation, priority 2023, published 2025).

Several values for one entry are separate records, joined by “and”; a condition that tells them apart may be missing. Identical values can stand only once. Non-standard residues stand in square brackets, D forms with d. Residues, ends and D or L forms follow the SMILES beside them. aThr = C[C@H](O)[C@H](N)C(=O)O; dPra = C#CC[C@@H](N)C(=O)O; dDap = NC[C@@H](N)C(=O)O

In data set [1] the test system is proteasome. To be noted: background statement; cited from earlier work.
For a further data set, the system named is human red blood cells. Nature of the data set: Hemolysis assay. It counts as cell-based. To be noted: percent hemolysis, 1 hour at 37° C., table title 15 uM, method 20 μM, in %. The protocol: Whole human blood was purchased at BiolVT and used prior to its expiration. 100 μL blood was added to a 1.5 mL Eppendorf tub with 500 μL of sterile 0.9% NaCl. The tube was inverted multiple times to mix the solution. This mixture was centrifuged at 500 g for 7 minutes. The supernatant was extracted utilizing a pipette. The pellet was washed 2 more times. After the final wash, 800 μL of Red Blood Cell (RBC) buffer was added to the pellet to resuspend the red blood cells. 4 μL of the compounds (20 μM in DMSO, final concentration), 76 μL RBC buffer, and 40 μL resuspended red blood cells were added to a 96 U-well plate (VWR) and incubated for 1 hour at 37° C. The plate was spun at 500 g for 5 minutes. […] of the supernatant was transferred to a 96 flat-well plate. The absorbance was read at 540 nm utilizing a SpectraMax iD3 platereader. Percent hemolysis was measured from the average absorbance of the positive and negative controls. A minimum of 3 biological triplicates were performed.

Data set [2] relates to T1, 20S CP.
T1 construct: purchased South Bay
The data set can be described thus: Purified protein degradation assay. To be noted: 10 uM CyPPS, 5 nM 20S CP, 200 ng purified protein, 1 hour at 37° C.; for proteasomal degradation of α-synuclein: highly disordered protein; for proteasomal degradation of GAPDH / proteasomal degradation of lysozyme: low disordered protein. It counts as biochemical. The protocol: Proteins were diluted to 50 ng/μL in Tris HCl (50 mM, pH 7.6). The CyPPS were diluted to 30 μM in Tris HCl, with 6% DMSO. The 20S CP (South Bay) was diluted to 15 nM with Tris HCl. Each protein was performed with a latent level, basal level, and CyPPS in triplicate. The latent level was prepared with 4 μL protein and 8 μL of 3% DMSO in Tris HCl. The basal level contained 4 μL protein, 4 μL 20S CP, and 4 μL 6% DMSO in Tris HCl. The CyPPS was performed with 4 μL protein, 4 μL 20S CP, and 4 μL 30 μM CyPPS. The samples were incubated for 1 hour at 37° C. 4 μL of 4×SDS gel loading buffer was added and heated for 5 minutes at 95° C. The samples were run on a 15-well gradient gel for SDS-PAGE, stained with Coomassie, imaged with an imaging system, and quantified with ImageJ. Analysis was done via GraphPad PRISM9.

Data set [3] addresses T1, 20S CP. The data set can be described thus: TAS-1 biochemical assay (20S CP stimulation). Also on record: key to Emax: % of DMSO control rate (percent stimulation); key to TAS-1: % of DMSO control rate of TAS-1 hydrolysis. The conditions noted are these: for EC50: dose-response curve; for EC50 / Emax: 20S CP stimulation; for Emax: maximal response of dose-response curve, in %; for TAS-1: percent stimulation of 20S CP, rate of TAS-1 hydrolysis normalized against DMSO, compounds tested at 10 μM, 5 nM 20S CP. The protocol: Each compound was initially tested at 10 μM. Each well contained […] of 11.4 μM TAS-1 solution in Tris HCl (50 mM, pH 7.4) along with 5 nM of 20 sCP (South Bay). 1 μL of the test compound, control, or DMSO was added to the desired well to obtain a final DMSO concentration of 2%, with the total volume being 50 μL. Compounds were tested in three replicates that each had technical triplicates. The fluorescence was recorded using a SynergyNeo 2, where the excitation and emission was set to 335 nm and 493 nm. The plate reader was heated to 37° C. The fluorescence was recorded every 90 seconds over a 1-hour period. A simple linear regression was performed on the data plotted against time to obtain the rate of hydrolysis of TAS-1 by the 20S CP. The data was then normalized against DMSO to get the percent stimulation.

The test system of data set [4] is T2, cytosolic proteasome in HEK293 T cells.
T2 construct: endogenous in cells; host or cells: HEK 293T
Nature of the data set: Flow cytometry assay of proteasome stimulation in cellulo (epoxomicin probe). The conditions noted are these: for In-Cellulo: 10 μM stimulator, 2.5 μM epoxomicin probe, 1 hour, flow cytometry (FITC); for cellular stimulation of the proteasome (in words): 10 μM, flow cytometry. Format: cell-based. An excerpt:
Flow cytometry allows for the study of proteasomal activity in physiologically relevant conditions and presents a high-throughput alternative to traditional gel electrophoresis and western blotting techniques. To test the assay, the covalent fluorescent-based probe was applied in HEK293 T cells to quantify proteasome stimulation of CyPPSs alone and in the presence of the known proteasome stimulator miconazole and the known proteasome inhibitor MG132. The covalent fluorescent-based probe utilized an epoxy-ketone warhead that interacts with the β5 subunit of the proteasome, forming a covalent attachment and fluorescently tagging the proteasome. The addition of the CyPPSs induces a significant shift in the intracellular fluorescence (FIG. 6). This shift validated that CyPPSs can stimulate cytosolic proteasome in cellulo. […] However, their activity was lower than what would be expected based on their in vitro activity. This may be due to incomplete cellular uptake or escape from the endosomes. […] This is likely due to a combination of effects, including the inability to stimulate the proteasome (FIGS. 2A and 2B) as well as the generally poor cell permeability and stability of linear peptides.
Confluent HEK 293T cells were seeded into sterilized 2 mL Fisherbrand Eppendorf tubes in FBS free Dulbecco's Modified Eagle Medium (DMEM) at a concentration of 300,000 cells per tube. The cells were centrifuged at 1000 g for 5 minutes. The supernatant was removed, and the cells were resuspended in 500 μL of a 10 μM stimulator solution in FBS free DMEM. Cells were spun down at 1000 g for 5 minutes, and the supernatant was again removed. Cells were then resuspended in 500 μL of a 10 μM stimulator 2.5 μM epoxomicin probe in FBS-free DMEM and incubated for 1 hour at 37° C. Cells were again centrifuged at 1000 g for 5 minutes. Supernatant was then removed, and cells were washed once with cold PBS. Cells were then resuspended in 50 μL of cold PBS and placed on ice. Cellular fluorescence was measured by collecting 50,000 events using the FITC channel of a BD Accuri C6 Flow Cytometer and analyzed using FlowJo.

For data set [5], the system named is proteasome. To be noted: background statement; cited from earlier work. The source holds these as a separate data set.

`CCCCC/C=C\C/C=C\C/C=C\C/C=C\CCCC(=O)Nc1ccc(O)cc1` [AM-404]: in the data set on proteasome [1], the “potency as proteasome stimulator (in words)” value (shortened to “potency”) was “lack of potency”.

`CC(C)C[C@H]1NC(=O)[C@H]([C@H](C)O)NC(=O)[C@@H](C)NC(=O)[C@H](CCCNC(=N)N)NC(=O)[C@@H](Cc2ccccc2)NC(=O)[C@H](Cc2ccccc2)NC1=O` [CyPPS1, TLFFRA [SEQ ID NO: 1]] (cyclo(F[dF]R[dA][aThr][dL])) yielded a Hemolysis in the data set on human red blood cells of 13 ± 1. In the data set on 20S CP [2], the “proteasomal degradation of α-synuclein” value was “greatly enhanced”, the “proteasomal degradation of GAPDH” value is recorded as “little-to-no effect” and the “proteasomal degradation of lysozyme” value was “little-to-no effect”. Further, on 20S CP [3], the EC50 was 6.4 µM, the Emax came out at 282.9 and the TAS-1 was found to be 339.5 ± 15.7. In the data set on 20S CP [3] (library of 45 cyclic peptides, TAS-1 assay), the “percent stimulation of the proteasome in the SNaPP library screen” value is “highest percent stimulation”. Moreover, in data set [4], the In-Cellulo is reported as 235.1 ± 5.5 and the “cellular stimulation of the proteasome (in words)” value (“cellular stimulation” for short) is “significant cellular stimulation of the proteasome”.

As to `CC(C)C[C@H]1NC(=O)[C@H](CC(=O)O)NC(=O)[C@@H](C)NC(=O)[C@H](CCCNC(=N)N)NC(=O)[C@@H](Cc2ccccc2)NC(=O)[C@H](Cc2ccccc2)NC1=O` [CyPPS8, DLFFRA [SEQ ID NO: 8]] (cyclo(D[dL]F[dF]R[dA])), the Hemolysis with human red blood cells was determined as 0 ± 0. In the data set with 20S CP [3] (TAS-1 assay), the “20S CP stimulatory activity (in words, SAR compared to CyPPS1)” value is listed as “maintained stimulatory activity”. At 20S CP [3], the EC50 amounted to 14.2 µM, the Emax was 701.4 and the TAS-1 is given as 372.2 ± 12.1. The In-Cellulo in data set [4] was 161.0 ± 31.7.

On to `CC(C)[C@H]1NC(=O)[C@H]([C@@H](C)O)NC(=O)[C@@H](C)NC(=O)[C@H](CCCNC(=N)N)NC(=O)[C@@H](Cc2ccccc2)NC(=O)[C@H](Cc2ccccc2)NC1=O` [CyPPS13, TVFFRA [SEQ ID NO: 13]] (cyclo(T[dV]F[dF]R[dA])), for which, in the data set with human red blood cells, the Hemolysis is 5 ± 2. Besides, the “20S CP stimulatory activity (in words, SAR compared to CyPPS1)” value in the data set with 20S CP [3] (TAS-1 assay) is on record as “retained activity”. On 20S CP [3], the EC50 was 4.1 µM and 4 µM; the Emax is 393 and 393.8; the TAS-1 is on record as 422.4 ± 18.5. The In-Cellulo in data set [4] was 173.7 ± 13.0.

Take `C#CC[C@H]1NC(=O)[C@H]([C@@H](C)O)NC(=O)[C@@H](C)NC(=O)[C@H](CCCNC(=N)N)NC(=O)[C@@H](Cc2ccccc2)NC(=O)[C@H](Cc2ccccc2)NC1=O` [CyPPS14, TXFFRA [SEQ ID NO: 14]] (cyclo(T[dPra]F[dF]R[dA])): in the data set on human red blood cells, the Hemolysis stood at 2 ± 1. In addition, in the data set with 20S CP [2], the “proteasomal degradation of α-synuclein” value is recorded as “greatly enhanced”, the “proteasomal degradation of GAPDH” value is given as “little-to-no effect” and the “proteasomal degradation of lysozyme” value is “little-to-no effect”. In the data set on 20S CP [3] (TAS-1 assay), the “20S CP stimulatory activity (in words, SAR compared to CyPPS1)” value is given as “retained stimulatory activity”. In addition, on 20S CP [3], the EC50 was 12.1 µM, the Emax is given as 513.6 and the TAS-1 was found to be 387.9 ± 2.7. Also, in data set [4], the In-Cellulo was determined as 231.4 ± 31.7 and the “cellular stimulation” value is “significant cellular stimulation of the proteasome”.

In the data set on human red blood cells, `CC(C)C[C@H]1NC(=O)[C@H]([C@@H](C)O)NC(=O)[C@@H](CN)NC(=O)[C@H](CCCNC(=N)N)NC(=O)[C@@H](Cc2ccccc2)NC(=O)[C@H](Cc2ccccc2)NC1=O` [CyPPS23, TLFFRX [SEQ ID NO: 23]] (cyclo(T[dL]F[dF]R[dDap])) returned a Hemolysis of 20 ± 4. Moreover, in the data set with 20S CP [2], the “proteasomal degradation of α-synuclein” value is given as “greatly enhanced”, the “proteasomal degradation of GAPDH” value was “little-to-no effect” and the “proteasomal degradation of lysozyme” value is “little-to-no effect”. In addition, the “20S CP stimulatory activity (in words, SAR compared to CyPPS1)” value in the data set on 20S CP [3] (TAS-1 assay) is “maintained stimulatory activity”. Besides, at 20S CP [3], the EC50 was 4 µM and 4.1 µM; the Emax was 391 and 390.9; the TAS-1 stood at 352.4 ± 39.1. In data set [4], the In-Cellulo was 247.3 ± 15.4 and the “cellular stimulation” value is listed as “significant cellular stimulation of the proteasome”.

With `CC(C)c1ccc2c(c1)c(SC(C)(C)C)c(CC(C)(C)C(=O)O)n2Cc1ccc(Cl)cc1` [MK-866], the “activity in cell-based assays (in words)” value with proteasome [5] is “inactivity in cell-based assays”.

On to `CN(C)CCCN1c2ccccc2Sc2ccc(Cl)cc21` [chloropromazine], for which, in the data set on proteasome [5], the “activity in cell-based assays (in words)” value is reported as “inactivity in cell-based assays”.

For `Clc1ccc(COC(Cn2ccnc2)c2ccc(Cl)cc2Cl)c(Cl)c1` (centres unmarked) [miconazole], the “potency” value in the data set on proteasome [1] is recorded as “lack of potency”.

As to `C[C@H]1[C@H](C)CC[C@]2(C(=O)O)CC[C@]3(C)C(=CC[C@@H]4[C@@]5(C)CC[C@H](O)C(C)(C)[C@@H]5CC[C@]43C)[C@H]12` [ursolic acid], the “potency” value in the data set with proteasome [1] is recorded as “lack of potency”.
